From US6355799B1, “Substituted benzene compounds, process for their preparation, and herbicidal and defoliant compositions containing them” (ISK Americas Incorporated, priority 1997, dated 2002)

Tests used:
Type in all cases: in vivo
[1] = system: barnyardgrass (Echinochloa crus-galli, ECHCG); test: Pre-emerge test, greenhouse herbicide activity screening; conditions: pre-emerge, rated 14 days after application, 0 = no damage, 100 = complete death
Outline: (§1)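 Herbicidal damage is scored 0 (none) to 100 (complete plant death) two weeks after a simulated field spray. Rates span 15–1000 g ai/ha, delivered in acetone at 187 l/ha. For post-emergence treatments, plants have 2–3 leaves and the spray carries 0.25% v/v non-ionic surfactant.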

[2] = system: ivyleaf morningglory (Ipomoea hederacea, IPOHE); test: as above; conditions: pre-emerge, rated 14 days after application, 0 = no damage, 100 = complete death
Outline: as §1

[3] = system: sicklepod (Cassia obtusifolia, CASOB); test: as above; conditions: pre-emerge, rated 14 days after application, 0 = no damage, 100 = complete death
Outline: as §1

[4] = system: lambsquarters (Chenopodium album, CHEAL); test: as above; conditions: pre-emerge, rated 14 days after application, 0 = no damage, 100 = complete death
Outline: as §1

[5] = system: johnsongrass (Sorghum halepense, SORHA); test: as above; conditions: pre-emerge, rated 14 days after application, 0 = no damage, 100 = complete death
Outline: as §1

[6] = system: large crabgrass (Digitaria sanguinalis, DIGSA); test: as above; conditions: pre-emerge, rated 14 days after application, 0 = no damage, 100 = complete death
Outline: as §1

[7] = system: velvetleaf (Abutilon theophrasti, ABUTH); test: as above; conditions: pre-emerge, rated 14 days after application, 0 = no damage, 100 = complete death
Outline: as §1

[8] = system: green foxtail (Setaria viridis, SETVI); test: as above; conditions: pre-emerge, rated 14 days after application, 0 = no damage, 100 = complete death
Outline: as §1

[9] = system: redroot pigweed (Amaranthus retroflexus, AMARE); test: as above; conditions: pre-emerge, rated 14 days after application, 0 = no damage, 100 = complete death
Outline: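 Visual ratings on a 0-100 scale (0 no damage, 100 all plants dead) were taken at 14 days after treatment. Rates of 15-1000 g ai/ha in acetone, 187 l/ha, were sprayed onto soil one day after planting (pre-emerge) or onto 2-3 leaf plants with 0.25% v/v surfactant (post-emerge).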

[10] = system: upland rice (Oryza sp., var. Tebonnet, RICE); test: Pre-emerge test, crop safety; conditions: pre-emerge, rated 14 days after application, 0 = no damage, 100 = complete death
Outline: (§2)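 Compounds in acetone were track-sprayed at 15-1000 g ai/ha (187 l/ha) on sandy loam pots: pre-emerge one day after seeding, post-emerge at 2-3 leaf stage with 0.25% v/v non-ionic surfactant. Phytotoxicity was rated 14 days later on a 0 (no damage) to 100 (complete death) scale.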

[11] = system: field corn (Zea mays L., var. Dekalb 535, CORN); test: Pre-emerge test, crop safety; conditions: pre-emerge, rated 14 days after application, 0 = no damage, 100 = complete death
Outline: as §2

[12] = system: redroot pigweed (Amaranthus retroflexus, AMARE); test: Post-emerge test, greenhouse herbicide activity screening; conditions: phytotoxicity rating 0-100 (0 no damage, 100 complete death), 14 days after application
Outline: (§3)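 Compounds in acetone were track-sprayed at 187 l/ha, 15–1000 g ai/ha, onto sandy loam pots. Pre-emerge seeds were sown one day before spraying, with surface watering afterwards. Post-emerge plants were at the 2–3 leaf stage and sprayed with 0.25% v/v non-ionic surfactant. Injury was rated 0–100 at 14 days.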

[13] = system: barnyardgrass (Echinochloa crus-galli, ECHCG); test: as above; conditions: phytotoxicity rating 0-100 (0 no damage, 100 complete death), 14 days after application
Outline: as §3

[14] = system: ivyleaf morningglory (Ipomoea hederacea, IPOHE); test: as above; conditions: phytotoxicity rating 0-100 (0 no damage, 100 complete death), 14 days after application
Outline: as §3

[15] = system: lambsquarters (Chenopodium album, CHEAL); test: as above; conditions: phytotoxicity rating 0-100 (0 no damage, 100 complete death), 14 days after application
Outline: as §3

[16] = system: johnsongrass (Sorghum halepense, SORHA); test: as above; conditions: phytotoxicity rating 0-100 (0 no damage, 100 complete death), 14 days after application
Outline: as §3

[17] = system: large crabgrass (Digitaria sanguinalis, DIGSA); test: as above; conditions: phytotoxicity rating 0-100 (0 no damage, 100 complete death), 14 days after application
Outline: as §3

[18] = system: velvetleaf (Abutilon theophrasti, ABUTH); test: as above; conditions: phytotoxicity rating 0-100 (0 no damage, 100 complete death), 14 days after application
Outline: as §3

[19] = system: green foxtail (Setaria viridis, SETVI); test: as above; conditions: phytotoxicity rating 0-100 (0 no damage, 100 complete death), 14 days after application
Outline: as §3

[20] = system: upland rice (Oryza sp., var. Tebonnet, RICE); test: Post-emerge test, crop safety; conditions: phytotoxicity rating 0-100 (0 no damage, 100 complete death), 14 days after application
Outline: as §1

[21] = system: field corn (Zea mays L., var. Dekalb 535, CORN); test: Post-emerge test, crop safety; conditions: phytotoxicity rating 0-100 (0 no damage, 100 complete death), 14 days after application
Outline: as §1

C=Cc1ccc(C(=O)Nc2c(OC)c(Cl)cc(F)c2-n2c(=O)cc(C(F)(F)F)n(C)c2=O)cc1 [2-31]
Pre-emerge Herbicidal Activity ECHCG (phytotoxicity rating, scale 0-100) ([1]; 63 g ai/ha): 40 | Pre-emerge Herbicidal Activity ECHCG (phytotoxicity rating, scale 0-100) ([1]; 250 g ai/ha): 100 | Pre-emerge Herbicidal Activity IPOHE (phytotoxicity rating, scale 0-100) ([2]; 63 g ai/ha): 100 | Pre-emerge Herbicidal Activity IPOHE (phytotoxicity rating, scale 0-100) ([2]; 250 g ai/ha): 100 | Pre-emerge Herbicidal Activity CASOB (phytotoxicity rating, scale 0-100) ([3]; 63 g ai/ha): 100 | Pre-emerge Herbicidal Activity CASOB (phytotoxicity rating, scale 0-100) ([3]; 250 g ai/ha): 100 | Pre-emerge Herbicidal Activity CHEAL (phytotoxicity rating, scale 0-100) ([4]; 63 g ai/ha): 100 | Pre-emerge Herbicidal Activity CHEAL (phytotoxicity rating, scale 0-100) ([4]; 250 g ai/ha): 100 | Pre-emerge Herbicidal Activity SORHA (phytotoxicity rating, scale 0-100) ([5]; 63 g ai/ha): 60 | Pre-emerge Herbicidal Activity SORHA (phytotoxicity rating, scale 0-100) ([5]; 250 g ai/ha): 85 | Pre-emerge Herbicidal Activity DIGSA (phytotoxicity rating, scale 0-100) ([6]; 63 g ai/ha): 90 | Pre-emerge Herbicidal Activity DIGSA (phytotoxicity rating, scale 0-100) ([6]; 250 g ai/ha): 100 | Pre-emerge Herbicidal Activity ABUTH (phytotoxicity rating, scale 0-100) ([7]; 63 g ai/ha): 100 | Pre-emerge Herbicidal Activity ABUTH (phytotoxicity rating, scale 0-100) ([7]; 250 g ai/ha): 100 | Pre-emerge Herbicidal Activity SETVI (phytotoxicity rating, scale 0-100) ([8]; 63 g ai/ha): 100 | Pre-emerge Herbicidal Activity SETVI (phytotoxicity rating, scale 0-100) ([8]; 250 g ai/ha): 100 | Pre-emerge Herbicidal Activity AMARE (phytotoxicity rating, scale 0-100) ([9]; 63 g ai/ha): 100 | Pre-emerge Herbicidal Activity AMARE (phytotoxicity rating, scale 0-100) ([9]; 250 g ai/ha): 100 | Pre-emerge crop damage RICE (phytotoxicity rating, scale 0-100) ([10]; 63 g ai/ha): 40 | Pre-emerge crop damage RICE (phytotoxicity rating, scale 0-100) ([10]; 250 g ai/ha): 90 | Pre-emerge crop damage CORN (phytotoxicity rating, scale 0-100) ([11]; 63 g ai/ha): 20 | Pre-emerge crop damage CORN (phytotoxicity rating, scale 0-100) ([11]; 250 g ai/ha): 40 | Post-emerge Herbicidal Activity AMARE ([12]; 63 g ai/ha): 100 | Post-emerge Herbicidal Activity AMARE ([12]; 250 g ai/ha): 90 | Post-emerge Herbicidal Activity ECHCG ([13]; 63 g ai/ha): 10 | Post-emerge Herbicidal Activity ECHCG ([13]; 250 g ai/ha): 40 | Post-emerge Herbicidal Activity IPOHE ([14]; 63 g ai/ha): 90 | Post-emerge Herbicidal Activity IPOHE ([14]; 250 g ai/ha): 100 | Post-emerge Herbicidal Activity CHEAL ([15]; 63 g ai/ha): 80 | Post-emerge Herbicidal Activity CHEAL ([15]; 250 g ai/ha): 95 | Post-emerge Herbicidal Activity SORHA ([16]; 63 g ai/ha): 10 | Post-emerge Herbicidal Activity SORHA ([16]; 250 g ai/ha): 30 | Post-emerge Herbicidal Activity DIGSA ([17]; 63 g ai/ha): 0 | Post-emerge Herbicidal Activity DIGSA ([17]; 250 g ai/ha): 20 | Post-emerge Herbicidal Activity ABUTH ([18]; 63 g ai/ha): 100 | Post-emerge Herbicidal Activity ABUTH ([18]; 250 g ai/ha): 100 | Post-emerge Herbicidal Activity SETVI ([19]; 63 g ai/ha): 10 | Post-emerge Herbicidal Activity SETVI ([19]; 250 g ai/ha): 20 | Post-emerge Herbicidal Activity RICE (crop damage) ([20]; 63 g ai/ha): 50 | Post-emerge Herbicidal Activity RICE (crop damage) ([20]; 250 g ai/ha): 70 | Post-emerge Herbicidal Activity CORN (crop damage) ([21]; 63 g ai/ha): 40 | Post-emerge Herbicidal Activity CORN (crop damage) ([21]; 250 g ai/ha): 60
